Legend:
Homo sapiens [1] = species: Homo sapiens
Description: Inhibition of transglutaminase in human keratinocytes in presence of 10 uM retinal relative to retinal alone

[2] = target: T1, Diacylglycerol O-acyltransferase 1 (Bos taurus) (UniProt Q8MK44); settings: at 100 µM
T1 sequence (whole entry): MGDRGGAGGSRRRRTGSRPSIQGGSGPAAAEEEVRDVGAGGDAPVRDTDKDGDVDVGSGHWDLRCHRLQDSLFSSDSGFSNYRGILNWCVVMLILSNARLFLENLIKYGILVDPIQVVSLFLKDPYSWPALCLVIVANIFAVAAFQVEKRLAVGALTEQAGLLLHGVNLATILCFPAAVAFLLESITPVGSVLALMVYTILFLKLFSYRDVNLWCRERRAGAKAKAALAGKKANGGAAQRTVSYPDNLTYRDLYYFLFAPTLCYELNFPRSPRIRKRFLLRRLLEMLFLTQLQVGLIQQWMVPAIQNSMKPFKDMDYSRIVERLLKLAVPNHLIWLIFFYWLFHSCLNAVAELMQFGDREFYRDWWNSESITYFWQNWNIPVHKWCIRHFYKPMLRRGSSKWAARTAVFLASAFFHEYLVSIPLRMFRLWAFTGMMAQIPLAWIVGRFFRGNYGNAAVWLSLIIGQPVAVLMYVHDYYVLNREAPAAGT
Description: Inhibition of ARAT in bovine RPE microsomes at 100 uM using retinol substrate in presence of dilauroyl-phosphatidyl choline incubated for 5 mins by HPLC analysis relative to control

[3] = target: T2, Lecithin retinol acyltransferase (Bos taurus) (UniProt Q9BGL2); settings: at 100 µM
T2 sequence (whole entry): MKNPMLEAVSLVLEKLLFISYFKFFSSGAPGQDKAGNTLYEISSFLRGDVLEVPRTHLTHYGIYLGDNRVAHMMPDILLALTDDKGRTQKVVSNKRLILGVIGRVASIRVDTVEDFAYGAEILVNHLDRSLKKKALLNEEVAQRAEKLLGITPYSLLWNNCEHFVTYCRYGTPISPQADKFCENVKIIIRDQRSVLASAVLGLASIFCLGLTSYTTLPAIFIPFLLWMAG
Description: Inhibition of LRAT in bovine RPE microsomes at 100 uM using retinol substrate in presence of Palmitoyl-CoA incubated for 5 mins by HPLC analysis relative to control

[4] = target: T1, Diacylglycerol O-acyltransferase 1 (Bos taurus); assay: Inhibition of ARAT in bovine RPE microsomes at 10 uM using retinol substrate in presence of dilauroyl-phosphatidyl choline incubated for 5 mins by HPLC analysis relative to control
Homo sapiens [5] = species: Homo sapiens; assay: Inhibition of transglutaminase in human keratinocytes assessed as mean transglutaminase activity level at 3.73 10^-7M in presence of 10 uM retinal relative to retinal alone; assay type: cell-based; parameters: scale not given: the % may be the effect or the level left
Homo sapiens [6] = species: Homo sapiens; assay: Inhibition of transglutaminase in human keratinocytes assessed as mean transglutaminase activity level at 3.3 10^-6M in presence of 10 uM retinal relative to retinal alone; assay type: cell-based; parameters: scale not given: the % may be the effect or the level left
Homo sapiens [7] = species: Homo sapiens; assay: Inhibition of transglutaminase in human keratinocytes assessed as mean transglutaminase activity level at 1.1 10^-6M in presence of 10 uM retinal relative to retinal alone; assay type: cell-based; parameters: scale not given: the % may be the effect or the level left
Homo sapiens [8] = species: Homo sapiens; assay: Inhibition of transglutaminase in human keratinocytes assessed as mean transglutaminase activity level at 4.1 10^-8M in presence of 10 uM retinal relative to retinal alone; assay type: cell-based; parameters: scale not given: the % may be the effect or the level left
Homo sapiens [9] = species: Homo sapiens; assay: Inhibition of transglutaminase in human keratinocytes assessed as mean transglutaminase activity level at 3 10^-5M in presence of 10 uM retinal relative to retinal alone; assay type: cell-based; parameters: scale not given: the % may be the effect or the level left
Homo sapiens [10] = species: Homo sapiens; assay: Inhibition of transglutaminase in human keratinocytes assessed as mean transglutaminase activity level at 8.2 10^-8M in presence of 10 uM retinal relative to retinal alone; assay type: cell-based; parameters: scale not given: the % may be the effect or the level left
Rattus norvegicus = species: Rattus norvegicus; assay: Inhibition of retinal reductase in Sprague-Dawley rat liver microsomes at 100 uM using all-trans retinaldehyde and NADPH by HPLC analysis relative to control
Homo sapiens [11] = species: Homo sapiens; assay: Inhibition of transglutaminase in human keratinocytes assessed as mean transglutaminase activity level at 3.29 10^-9M in presence of 10 uM retinal relative to retinal alone; assay type: cell-based; parameters: scale not given: the % may be the effect or the level left
Homo sapiens [12] = species: Homo sapiens; assay: Inhibition of transglutaminase in human keratinocytes assessed as mean transglutaminase activity level at 1 10^-5M in presence of 10 uM retinal relative to retinal alone; assay type: cell-based; parameters: scale not given: the % may be the effect or the level left
Homo sapiens [13] = species: Homo sapiens; assay: Inhibition of transglutaminase in human keratinocytes assessed as mean transglutaminase activity level at 1.23 10^-7M in presence of 10 uM retinal relative to retinal alone; assay type: cell-based; parameters: scale not given: the % may be the effect or the level left
Homo sapiens [14] = species: Homo sapiens; assay: Inhibition of transglutaminase in human keratinocytes assessed as mean transglutaminase activity level at 1.65 10^-9M in presence of 10 uM retinal relative to retinal alone; assay type: cell-based; parameters: scale not given: the % may be the effect or the level left
[15] = target: T2, Lecithin retinol acyltransferase (Bos taurus); assay: Inhibition of LRAT in bovine RPE microsomes at 10 uM using retinol substrate in presence of Palmitoyl-CoA incubated for 5 mins by HPLC analysis relative to control
Homo sapiens [16] = species: Homo sapiens; assay: Inhibition of transglutaminase in human keratinocytes assessed as mean transglutaminase activity level at 1.0 10^-3M in presence of 10 uM retinal relative to retinal alone; assay type: cell-based; parameters: scale not given: the % may be the effect or the level left
[17] = target: T3, Cellular retinoic acid-binding protein 2 (Homo sapiens) (UniProt P29373); assay: Inhibition of radioactive all-trans retinoic acid binding to CRABP2 (unknown origin) expressed in Escherichia coli BLR(DE3)pLys incubated for 1 hr by scintillation counting assay; settings: concentration not given here
T3 sequence (whole entry): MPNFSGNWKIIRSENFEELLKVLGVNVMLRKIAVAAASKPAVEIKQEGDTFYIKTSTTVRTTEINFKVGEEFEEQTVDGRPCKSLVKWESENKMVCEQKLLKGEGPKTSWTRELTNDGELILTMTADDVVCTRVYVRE

Homo sapiens [18] = species: Homo sapiens; assay: Inhibition of transglutaminase in human keratinocytes assessed as mean transglutaminase activity level at 4.1 10^-5M in presence of 10 uM retinal relative to retinal alone; assay type: cell-based; parameters: scale not given: the % may be the effect or the level left
Homo sapiens [19] = species: Homo sapiens; assay: Inhibition of transglutaminase in human keratinocytes assessed as mean transglutaminase activity level at 1.23 10^-5M in presence of 10 uM retinal relative to retinal alone; assay type: cell-based; parameters: scale not given: the % may be the effect or the level left
Homo sapiens [20] = species: Homo sapiens; assay: Inhibition of transglutaminase in human keratinocytes assessed as mean transglutaminase activity level at 1.65 10^-7M in presence of 10 uM retinal relative to retinal alone; assay type: cell-based; parameters: scale not given: the % may be the effect or the level left
Homo sapiens [21] = species: Homo sapiens; assay: Inhibition of transglutaminase in human keratinocytes assessed as mean transglutaminase activity level at 1.1 10^-4M in presence of 10 uM retinal relative to retinal alone; assay type: cell-based; parameters: scale not given: the % may be the effect or the level left
Homo sapiens [22] = species: Homo sapiens; assay: Inhibition of transglutaminase in human keratinocytes assessed as mean transglutaminase activity level at 5.0 10^-8M in presence of 10 uM retinal relative to retinal alone; assay type: cell-based; parameters: scale not given: the % may be the effect or the level left
Homo sapiens [23] = species: Homo sapiens; assay: Inhibition of transglutaminase in human keratinocytes assessed as mean transglutaminase activity level at 3.29 10^-7M in presence of 10 uM retinal relative to retinal alone; assay type: cell-based; parameters: scale not given: the % may be the effect or the level left
Homo sapiens [24] = species: Homo sapiens; assay: Inhibition of transglutaminase in human keratinocytes assessed as mean transglutaminase activity level at 3.73 10^-4M in presence of 10 uM retinal relative to retinal alone; assay type: cell-based; parameters: scale not given: the % may be the effect or the level left
Homo sapiens [25] = species: Homo sapiens; assay: Inhibition of transglutaminase in human keratinocytes assessed as mean transglutaminase activity level at 8.2 10^-6M in presence of 10 uM retinal relative to retinal alone; assay type: cell-based; parameters: scale not given: the % may be the effect or the level left

Structure (SMILES): CC(=O)N1CCN(c2ccc(OCC3COC(Cn4ccnc4)(c4ccc(Cl)cc4Cl)O3)cc2)CC1 (stereo not given)
- IC20 (Homo sapiens [1]): 5.52 ×10⁻⁸ M

Structure (SMILES): CCCCCCCCCCCC1=NCCN1CCO
- IC20 (Homo sapiens [1]): 2.69 ×10⁻⁷ M

Structure (SMILES): CC(=O)C1(C)C2CC3C(C2)C31C (stereo not given)
- inhibition [2]: 23%
- inhibition [3]: 12%

Structure (SMILES): C/C=C/C(=O)C1=C(C)CCCC1(C)C
- inhibition [4]: 45%

Structure (SMILES): CCC(=O)C=CC1C(C)=CCCC1(C)C (stereo not given)
- inhibition [2]: 67%
- inhibition [3]: 77%

Structure (SMILES): CCCCCCCC/C=C\CCCCCCCC[N+](C)(C)CC(=O)[O-]
- inhibition [2]: 47%
- IC20 (Homo sapiens [1]): 1.08 ×10⁻⁵ M

Structure (SMILES): CC1=CC(C)C(CO)C(C)C1 (stereo not given)
- inhibition [2]: 18%
- inhibition [3]: 16%

Structure (SMILES): CC(=O)/C=C/C=C(\C)CCC=C(C)C
- inhibition [2]: 12%

Structure (SMILES): CC1(C)[C@@H](O)CC[C@]2(C)[C@H]3C(=O)C=C4[C@@H]5C[C@@](C)(C(=O)O)CC[C@]5(C)CC[C@@]4(C)[C@]3(C)CC[C@@H]12
- Activity (Homo sapiens [5]): 120%
- Activity (Homo sapiens [6]): 2.5%
- Activity (Homo sapiens [7]): 96.4%
- Activity (Homo sapiens [8]): 93%
- Activity (Homo sapiens [9]): -0.3%
- Activity (Homo sapiens [10]): 225%
- inhibition (Rattus norvegicus): 38%
- Activity (Homo sapiens [11]): 100%
- IC20 (Homo sapiens [1]): 5.96 ×10⁻⁶ M
- Activity (Homo sapiens [12]): 0.7%
- Activity (Homo sapiens [13]): 112%
- Activity (Homo sapiens [14]): 103%

Structure (SMILES): C[C@H]1[C@H](C)CC[C@]2(C(=O)O)CC[C@]3(C)C(=CC[C@@H]4[C@@]5(C)CC[C@H](O)C(C)(C)[C@@H]5CC[C@]43C)[C@H]12
- IC20 (Homo sapiens [1]): 5.94 ×10⁻⁷ M

Structure (SMILES): CCOC(=O)C1=C(C)C=CCC1(C)C
- inhibition [3]: 49%

Structure (SMILES): O=c1c2cccc3cccc(c32)c2nc3ccccc3n12
- IC20 (Homo sapiens [1]): 4.69 ×10⁻⁷ M

Structure (SMILES): C/C=C/C(=O)C1=C(C)CC(C)(C)CC1
- inhibition [2]: 80%

Structure (SMILES): O=c1c(O)c(-c2ccc(O)c(O)c2)oc2cc(O)cc(O)c12
- IC20 (Homo sapiens [1]): 5.11 ×10⁻⁵ M

Structure (SMILES): CC1(C)[C@@H](OC(=O)CCC(=O)O)CC[C@]2(C)[C@H]3C(=O)C=C4[C@@H]5C[C@@](C)(C(=O)O)CC[C@]5(C)CC[C@@]4(C)[C@]3(C)CC[C@@H]12
- Activity (Homo sapiens [5]): 126%
- Activity (Homo sapiens [6]): 51.7%
- Activity (Homo sapiens [7]): 158%
- Activity (Homo sapiens [8]): 135%
- Activity (Homo sapiens [9]): -7.1%
- Activity (Homo sapiens [10]): 112%
- inhibition (Rattus norvegicus): 26%
- Activity (Homo sapiens [11]): 64%
- IC20 (Homo sapiens [1]): 2 ×10⁻⁷ M
- Activity (Homo sapiens [12]): 27.3%
- Activity (Homo sapiens [13]): 81%
- Activity (Homo sapiens [14]): 77.8%

Structure (SMILES): C/C=C/C(=O)C1C(C)C=CCC1(C)C (stereo not given)
- inhibition [15]: 64%
- inhibition [3]: 95%

Structure (SMILES): CC(/C=C/C=C(\C)C(=O)O)=C\C=C\C=C(C)\C=C\C=C(/C)C(=O)O
- IC20 (Homo sapiens [1]): 2.52 ×10⁻⁵ M
- inhibition [15]: 0%

Structure (SMILES): CCCCCCCCCCCC(=O)NCCC[N+](C)(C)CC(=O)[O-]
- inhibition [2]: 25%

Structure (SMILES): CCCCCCCC/C=C/CCCCCCCC(=O)O
- Activity (Homo sapiens [16]): 12.8%
- inhibition [17]: > 50%
- Activity (Homo sapiens [18]): 58.2%
- Activity (Homo sapiens [19]): 80.9%
- Activity (Homo sapiens [20]): 58%
- IC20 (Homo sapiens [1]): 5.88 ×10⁻⁵ M
- Activity (Homo sapiens [21]): 8%
- Activity (Homo sapiens [22]): 50.5%
- Activity (Homo sapiens [23]): 69%
- Activity (Homo sapiens [24]): 13.8%

Structure (SMILES): CC(C)(C)C(=O)C(Oc1ccc(Cl)cc1)n1ccnc1 (stereo not given)
- IC20 (Homo sapiens [1]): 2.45 ×10⁻⁷ M

Structure (SMILES): CCCCCCCCCCCCCC(=O)O
- Activity (Homo sapiens [16]): -2%
- Activity (Homo sapiens [18]): 75.1%
- Activity (Homo sapiens [25]): 74.2%
- Activity (Homo sapiens [20]): 88.9%
- IC20 (Homo sapiens [1]): 1.05 ×10⁻⁵ M
- Activity (Homo sapiens [21]): -8%
- Activity (Homo sapiens [23]): 101%
- Activity (Homo sapiens [24]): -6%

Structure (SMILES): CCCCC/C=C\C/C=C\CCCCCCCC(=O)N(CCO)CCO
- inhibition [2]: 43%
- inhibition [4]: 12%
- inhibition [15]: 11%
- inhibition [3]: 51%

Structure (SMILES): C=CCCC(=O)/C=C/C1C(C)=CCCC1(C)C (stereo not given)
- inhibition [15]: 17%
